Source: ChEMBL document CHEMBL5325492, “PROTACs Targeting MLKL Protect Cells from Necroptosis” (J Med Chem, 2023)
The source made the active and inactive calls. The rule behind the calls is not given here.

Key:
[1] = target: T1, Protein cereblon/Mixed lineage kinase domain-like protein (Homo sapiens, UniProt Q8NB16+Q96SW2); experiment: PROTAC activity at CRBN/MLKL in TSZ-induced human HT29 cells assessed as suppression of phosphorylated protein in cell lysates at 10 uM incubated for 8 hrs measured by capillary immunoassay; assay type: subcellular; conditions: HT-29
Target sequence in this assay (Q96SW2 whole entry, looked up, one chain of several, the tested form may be a part): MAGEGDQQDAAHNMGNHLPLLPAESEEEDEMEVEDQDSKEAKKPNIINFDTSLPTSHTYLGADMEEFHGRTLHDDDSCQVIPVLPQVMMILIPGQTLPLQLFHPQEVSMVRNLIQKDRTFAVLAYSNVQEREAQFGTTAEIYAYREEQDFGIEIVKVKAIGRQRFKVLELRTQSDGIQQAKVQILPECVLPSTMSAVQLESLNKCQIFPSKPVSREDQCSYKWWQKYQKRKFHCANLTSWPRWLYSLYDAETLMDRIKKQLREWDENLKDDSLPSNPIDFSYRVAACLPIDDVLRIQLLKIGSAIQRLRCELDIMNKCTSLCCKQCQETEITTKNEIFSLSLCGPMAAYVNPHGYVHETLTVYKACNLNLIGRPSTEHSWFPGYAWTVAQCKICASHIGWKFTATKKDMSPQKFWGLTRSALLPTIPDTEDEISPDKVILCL

[2] = target: T1, Protein cereblon/Mixed lineage kinase domain-like protein; experiment: PROTAC activity at CRBN/MLKL in human HEK-a cells assessed as remaining protein level in cell lysates at 0.1 to 10 uM incubated for 24 hrs measured by capillary immunoassay; assay type: subcellular; conditions: dose 0.1-10 µM
Target sequence in this assay (Q96SW2 whole entry, looked up, one chain of several, the tested form may be a part): as above

[3] = target: Protein cereblon/Receptor-interacting serine/threonine-protein kinase 1 (Homo sapiens) (UniProt Q13546+Q96SW2); experiment: PROTAC activity at CRBN/RIPK1 in human HT29 cells assessed as remaining protein level in cell lysates at 10 uM incubated for 24 hrs measured by capillary immunoassay relative to vehicle treated control; assay type: subcellular; conditions: HT-29
[4] = target: T1, Protein cereblon/Mixed lineage kinase domain-like protein; experiment: PROTAC activity at CRBN/MLKL in human HK-2 cells assessed as remaining protein level in cell lysates at 0.1 to 10 uM incubated for 24 hrs measured by capillary immunoassay; assay type: subcellular; conditions: dose 0.1-10 µM
Target sequence in this assay (Q96SW2 whole entry, looked up, one chain of several, the tested form may be a part): as above

[5] = target: T1, Protein cereblon/Mixed lineage kinase domain-like protein; experiment: PROTAC activity at CRBN/MLKL in TSZ-induced human HT29 cells assessed as remaining protein level in cell lysates preincubated with MG-132 for 30 mins followed by treated at 10 uM for 8 hrs measured by capillary immunoassay; assay type: subcellular; conditions: HT-29
Target sequence in this assay (Q96SW2 whole entry, looked up, one chain of several, the tested form may be a part): as above

[6] = test system: HT-29; experiment: Cytotoxicity against human HT-29 cells assessed as cell viability at 10 uM incubated for 24 hrs in presence of 3-(4-((difluoromethyl)sulfonamido)phenyl)-5-((3-methoxyphenyl)amino)-1H-pyrazole-4-carboxamide by CellTiter-Glo assay; assay type: toxicity, cell-based; conditions: ht-29, 24 h
[7] = target: T1, Protein cereblon/Mixed lineage kinase domain-like protein; experiment: PROTAC activity at CRBN/MLKL in human HT-29 cells assessed as degraded protein level in cell lysates incubated for 24 hrs measured by capillary immunoassay relative to vehicle treated control; assay type: subcellular
[8] = target: Protein cereblon/Mixed lineage kinase domain-like protein (Mus musculus) (UniProt Q8C7D2+Q9D2Y4); experiment: PROTAC activity at CRBN/MLKL in mouse NIH-3T3 cells assessed as remaining protein level in cell lysates at 0.1 to 10 uM incubated for 24 hrs measured by capillary immunoassay; assay type: subcellular; conditions: dose 0.1-10 µM
[9] = target: T1, Protein cereblon/Mixed lineage kinase domain-like protein; experiment: PROTAC activity at CRBN/MLKL in human HT29 cells assessed as remaining protein level in cell lysates at 10 uM incubated upto 5 hrs measured by capillary immunoassay relative to vehicle treated control; assay type: subcellular; conditions: HT-29
Target sequence in this assay (Q96SW2 whole entry, looked up, one chain of several, the tested form may be a part): as above

[10] = test system: HT-29; experiment: Cytotoxicity against human HT-29 cells assessed as cell viability at 10 uM incubated for 24 hrs in presence of lenalidomide by CellTiter-Glo assay; assay type: toxicity, cell-based; conditions: ht-29, 24 h
[11] = target: T2, Mixed lineage kinase domain-like protein (Homo sapiens) (UniProt Q8NB16); experiment: Induction of MLKL degradation in human HT-29 cells assessed as remaining protein level in cell lysates incubated for 24 hrs measured by capillary immunoassay; assay type: subcellular
T2 sequence (whole entry): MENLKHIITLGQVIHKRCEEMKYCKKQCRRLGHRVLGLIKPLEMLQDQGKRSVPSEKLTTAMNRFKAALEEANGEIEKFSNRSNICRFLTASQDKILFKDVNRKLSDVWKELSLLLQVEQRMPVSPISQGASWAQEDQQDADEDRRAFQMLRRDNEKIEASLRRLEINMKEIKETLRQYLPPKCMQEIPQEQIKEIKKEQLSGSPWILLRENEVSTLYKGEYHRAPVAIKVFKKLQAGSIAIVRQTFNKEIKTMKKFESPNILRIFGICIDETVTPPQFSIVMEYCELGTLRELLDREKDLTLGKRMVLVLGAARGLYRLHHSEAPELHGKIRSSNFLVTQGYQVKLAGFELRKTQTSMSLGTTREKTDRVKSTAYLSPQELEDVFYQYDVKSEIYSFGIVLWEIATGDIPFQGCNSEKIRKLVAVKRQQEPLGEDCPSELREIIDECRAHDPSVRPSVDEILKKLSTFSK

[12] = target: T3, Receptor-interacting serine/threonine-protein kinase 1 (Homo sapiens) (UniProt Q13546); experiment: Binding affinity to wild type human RIPK1 (M1/K305) expressed in bacterial expression system measured upto 10 uM by Eurofins-DiscoverX KINOMEscanTM KdELECT assay
T3 sequence (whole entry): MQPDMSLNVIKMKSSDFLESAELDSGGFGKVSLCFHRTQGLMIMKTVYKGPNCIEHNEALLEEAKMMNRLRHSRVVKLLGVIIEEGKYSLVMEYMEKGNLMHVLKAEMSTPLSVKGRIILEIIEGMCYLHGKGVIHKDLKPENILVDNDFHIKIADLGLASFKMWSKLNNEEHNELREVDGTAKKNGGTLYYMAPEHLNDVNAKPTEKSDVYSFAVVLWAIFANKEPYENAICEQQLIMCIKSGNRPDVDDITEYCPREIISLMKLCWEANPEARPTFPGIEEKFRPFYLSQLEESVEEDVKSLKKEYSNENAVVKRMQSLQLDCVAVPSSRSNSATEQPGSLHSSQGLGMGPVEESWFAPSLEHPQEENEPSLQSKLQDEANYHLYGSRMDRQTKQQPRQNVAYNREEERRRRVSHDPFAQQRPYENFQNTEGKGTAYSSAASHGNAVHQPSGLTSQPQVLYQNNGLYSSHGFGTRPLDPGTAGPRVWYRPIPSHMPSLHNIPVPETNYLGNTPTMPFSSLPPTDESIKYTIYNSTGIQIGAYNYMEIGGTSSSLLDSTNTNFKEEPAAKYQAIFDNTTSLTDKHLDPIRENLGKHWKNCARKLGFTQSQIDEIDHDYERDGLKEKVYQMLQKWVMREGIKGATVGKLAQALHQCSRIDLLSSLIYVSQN

[13] = target: T1, Protein cereblon/Mixed lineage kinase domain-like protein; experiment: PROTAC activity at CRBN/MLKL in TSZ-induced human HT29 cells assessed as suppression of phosphorylated protein in cell lysates at 10 uM incubated for 4 hrs measured by capillary immunoassay; assay type: subcellular; conditions: HT-29
Target sequence in this assay (Q96SW2 whole entry, looked up, one chain of several, the tested form may be a part): as the sequence (Q96SW2 whole entry, looked up, one chain of several, the tested form may be a part) above

[14] = target: T1, Protein cereblon/Mixed lineage kinase domain-like protein; experiment: PROTAC activity at CRBN/MLKL in human HT29 cells assessed as remaining protein level in cell lysates at 10 uM incubated upto 8 hrs measured by capillary immunoassay relative to vehicle treated control; assay type: subcellular; conditions: HT-29
[15] = target: T1, Protein cereblon/Mixed lineage kinase domain-like protein; experiment: PROTAC activity at CRBN/MLKL in human HT-29 cells assessed as degraded protein level in cell lysates at 10 uM incubated for 24 hrs measured by capillary immunoassay relative to vehicle treated control; assay type: subcellular
[16] = target: T1, Protein cereblon/Mixed lineage kinase domain-like protein; experiment: PROTAC activity at CRBN/MLKL in human HT29 cells assessed as remaining protein level in cell lysates incubated for 72 hrs measured by capillary immunoassay; assay type: subcellular; conditions: HT-29
[17] = target: T1, Protein cereblon/Mixed lineage kinase domain-like protein; experiment: PROTAC activity at CRBN/MLKL in human MKN74 cells assessed as remaining protein level in cell lysates at 0.1 to 10 uM incubated for 24 hrs measured by capillary immunoassay; assay type: subcellular; conditions: dose 0.1-10 µM
[18] = target: Receptor-interacting serine/threonine-protein kinase 3 (Homo sapiens) (UniProt Q9Y572); experiment: Binding affinity to wild type human RIPK3 (M1/Q307) expressed in bacterial expression system measured upto 10 uM by Eurofins-DiscoverX KINOMEscanTM KdELECT assay
[19] = test system: HT-29; experiment: Protection against TSZ-induced necroptosis in human HT-29 cells assessed as cell viability incubated for 24 hrs by CellTiter Glo assay; conditions: HT-29, 24 h
[20] = target: Protein cereblon/Receptor-interacting serine/threonine-protein kinase 2 (Homo sapiens) (UniProt O43353+Q96SW2); experiment: PROTAC activity at CRBN/RIPK2 in human HT29 cells assessed as remaining protein level in cell lysates at 10 uM incubated for 24 hrs measured by capillary immunoassay relative to vehicle treated control; assay type: subcellular; conditions: HT-29
Chain of Protein cereblon/Receptor-interacting serine/threonine-protein kinase 2 (Homo sapiens) (O43353 whole entry, looked up): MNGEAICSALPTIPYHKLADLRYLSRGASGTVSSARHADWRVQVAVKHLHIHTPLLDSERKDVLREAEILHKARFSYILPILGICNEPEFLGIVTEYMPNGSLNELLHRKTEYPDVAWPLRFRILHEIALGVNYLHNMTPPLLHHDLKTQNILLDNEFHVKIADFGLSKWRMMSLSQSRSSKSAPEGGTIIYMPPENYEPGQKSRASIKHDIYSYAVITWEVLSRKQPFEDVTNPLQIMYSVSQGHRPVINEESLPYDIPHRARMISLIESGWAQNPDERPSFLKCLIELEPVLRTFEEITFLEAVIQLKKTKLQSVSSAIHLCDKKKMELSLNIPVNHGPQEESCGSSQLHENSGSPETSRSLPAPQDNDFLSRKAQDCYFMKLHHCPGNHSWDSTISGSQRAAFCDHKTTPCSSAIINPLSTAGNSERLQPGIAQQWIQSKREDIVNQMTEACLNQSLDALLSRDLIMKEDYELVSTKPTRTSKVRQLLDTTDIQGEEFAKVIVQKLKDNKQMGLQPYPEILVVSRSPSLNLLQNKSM
Chain of Protein cereblon/Receptor-interacting serine/threonine-protein kinase 2 (Homo sapiens) (Q96SW2 whole entry, looked up): as the sequence (Q96SW2 whole entry, looked up, one chain of several, the tested form may be a part) above

Chain of Protein cereblon/Receptor-interacting serine/threonine-protein kinase 1 (Homo sapiens) (Q96SW2 whole entry, looked up, one chain of several, the tested form may be a part): as above
Chain of Receptor-interacting serine/threonine-protein kinase 3 (Homo sapiens) (Q9Y572 whole entry, looked up): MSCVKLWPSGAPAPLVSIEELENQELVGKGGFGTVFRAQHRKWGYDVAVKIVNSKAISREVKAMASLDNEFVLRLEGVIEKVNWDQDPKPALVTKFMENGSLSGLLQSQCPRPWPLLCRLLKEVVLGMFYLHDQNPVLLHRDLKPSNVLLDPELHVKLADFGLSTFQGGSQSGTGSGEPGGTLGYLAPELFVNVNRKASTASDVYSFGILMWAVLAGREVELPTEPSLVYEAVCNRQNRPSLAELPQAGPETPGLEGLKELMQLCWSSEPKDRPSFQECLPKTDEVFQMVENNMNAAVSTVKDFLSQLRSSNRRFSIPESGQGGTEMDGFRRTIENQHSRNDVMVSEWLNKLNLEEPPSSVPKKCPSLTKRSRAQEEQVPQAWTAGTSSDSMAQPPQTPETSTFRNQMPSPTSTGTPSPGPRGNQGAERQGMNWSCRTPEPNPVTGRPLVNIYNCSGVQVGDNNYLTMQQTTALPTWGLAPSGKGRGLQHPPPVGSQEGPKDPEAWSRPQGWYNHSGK
Chain of Protein cereblon/Mixed lineage kinase domain-like protein (Mus musculus) (Q8C7D2 whole entry, looked up, the tested form may be a part): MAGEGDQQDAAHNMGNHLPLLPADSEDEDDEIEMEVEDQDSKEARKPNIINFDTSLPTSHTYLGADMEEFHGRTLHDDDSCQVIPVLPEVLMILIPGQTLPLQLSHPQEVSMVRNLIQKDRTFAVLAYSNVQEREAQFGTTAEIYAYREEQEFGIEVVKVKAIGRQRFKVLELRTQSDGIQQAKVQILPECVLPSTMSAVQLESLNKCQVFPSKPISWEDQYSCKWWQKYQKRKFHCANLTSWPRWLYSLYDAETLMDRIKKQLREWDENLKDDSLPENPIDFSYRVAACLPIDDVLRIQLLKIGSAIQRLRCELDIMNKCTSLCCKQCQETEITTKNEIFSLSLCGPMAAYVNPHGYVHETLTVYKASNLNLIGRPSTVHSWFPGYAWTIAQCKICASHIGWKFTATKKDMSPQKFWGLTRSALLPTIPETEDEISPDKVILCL
Chain of Protein cereblon/Mixed lineage kinase domain-like protein (Mus musculus) (Q9D2Y4 whole entry, looked up, the tested form may be a part): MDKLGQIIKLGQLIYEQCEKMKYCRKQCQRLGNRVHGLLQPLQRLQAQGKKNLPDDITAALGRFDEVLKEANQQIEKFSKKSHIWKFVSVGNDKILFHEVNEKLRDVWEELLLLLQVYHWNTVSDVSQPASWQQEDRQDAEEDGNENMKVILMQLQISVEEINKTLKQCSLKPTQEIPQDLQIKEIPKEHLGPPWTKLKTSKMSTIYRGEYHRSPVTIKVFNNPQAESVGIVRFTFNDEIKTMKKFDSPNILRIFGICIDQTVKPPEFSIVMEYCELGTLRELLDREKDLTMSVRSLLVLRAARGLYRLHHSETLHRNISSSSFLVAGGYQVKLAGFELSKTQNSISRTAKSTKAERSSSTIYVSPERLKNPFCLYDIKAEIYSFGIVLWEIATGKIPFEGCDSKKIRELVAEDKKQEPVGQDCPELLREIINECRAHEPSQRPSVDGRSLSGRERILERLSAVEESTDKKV

## COc1ccc(C(=O)N2CCC3(CCN(C(=O)CCCCCCCOc4cccc(Nc5[nH]nc(-c6ccc(NS(=O)(=O)C(F)F)cc6)c5C(N)=O)c4)CC3)CC2)cc1N1CCC(=O)NC1=O
[1]
  Activity: Active
[2]
  Activity: Active
[3]
  Activity: inactive
[4]
  Activity: Active
[5]
  Activity: inactive
[6]
  Activity: Non-Toxic
[7]
  EC50: 2.4 µM
[7]; dose 0.1-10 µM
  Activity: Dose-Dependent Effect
[8]
  Activity: Active
[9]
  Activity: < 10%
[10]
  Activity: Non-Toxic
[11]
  Activity: inactive
[12]
  Activity: inactive
[13]
  Activity: Active
[14]
  Activity: Active
[15]
  Activity: > 90%
[16]
  Activity: Active
[17]
  Activity: Active
[18]
  Activity: inactive
[19]
  EC50: 1.2 µM
[20]
  Activity: inactive
